The text below walks through data of US10718028B2, “Fluorescent probes for abasic site detection” (CASE WESTERN RESERVE UIVERSITY, priority 2015, dated 2020).

The subject of one data set is AP DNA. The experiment in a line: SSB activity assay, dose-response of AP site binding probes. The following applies: 5 pmol AP DNA, FIG. 1. Format: biochemical. Here is the method:
FIG. 1 illustrates SSB activity assay is used to compare the dose-response of AP site binding probes in 5 pmol of AP DNA. Mean and standard deviation of triplicate samples are shown for each concentration.
The single strand break (SSB) assay was proposed as a quick, facile tool to screen AP site binding probes. Therefore, the assay was performed on novel AP site binding probes described above and the commercially available AP site binding probe, F422. […] The reduced response of F422 and DansylMX may be due in part to the compounds being fairly electron rich near the aminooxy binding moiety. This could lead to a Coulombic repulsion with the DNA phosphate backbone.
SSB activity assays were performed on a 40-mer duplex DNA synthesized by IDT with the sequence:
SSB Activity Assay Control Reactions

Data set [1] can be described thus: Absorption and emission spectra of AP site binding probes in ethanol. The format is physicochemical. Here is the method: NMR spectra were recorded on a Varian Mercury 300 MHz, a Varian Inova 400, and a Varian Inova 600 MHz spectrometer at room temperature, except where otherwise noted. Chemical shifts for 1H NMR were reported as 6, parts per million, and referenced to CHCl3 at 7.26 ppm or TMS at 0 ppm. Chemical shifts for ^13C NMR were reported as 6 and referenced to the center line of the CDCl3 triplet at 77.0 ppm or CH2Cl2 pentet at 54.0 ppm. Low resolution mass spectra were recorded on a ThermoScientific LCQ Advantage or a Finnigan LCQ Deca mass spectrometer. Fluorescence data were collected on a Varian Cary Eclipse fluorescence spectrophotometer in a quartz cuvette with a 1 cm pathlength or on a Tecan Infinite M200 scanner. Absorbance data were collected on a Varian Cary 50 Bio UV-Visible Spectrophotometer in a quartz cuvette with a 1 cm path length.
To characterize the fluorescent properties, the absorption and emission spectra were collected for all final compounds.

The subject of data set [2] is AP sites in calf thymus DNA. The data set is described as follows: MX and Cy7MX genomic DNA blocking assay. Format: binding. The following applies: DNA pretreated with large excess of MX (1000×). Here is the method: FIG. 10 illustrates fluorescence response and MX blocking of Cy7MX. Calf thymus DNA treated with heat and acid for increments of 15 min to give a linear relative number of AP sites. AP DNA was then pretreated with MX (50 mM, +MX) or NaCl (50 mM, −MX) followed by incubation with Cy7MX (0.05 mM). Fluorescence measures show a linear response to Cy7MX when not blocked by MX.
Calf thymus DNA was purchased from Sigma and was reconstituted overnight at 4° C. in either H2O or 500 mM MX (to eliminate basal AP sites) with gentle shaking (1.5 mL water or solution per 5 mg DNA). For samples reconstituted in MX solution, an ethanol precipitation was performed twice before heat and acid treatment (vide infra) then reconstituted in water. The DNA-water solution was aliquoted to 1.5 mL Eppendorf tubes (360 μL) and 10× Citrate buffer (1M NaCl, 100 μM monosodium phosphate, 100 μM monosodium citrate, pH 5.0) was added to a final concentration of 1×. For t=0 min samples, ice-cold 100% EtOH (1.0 mL) was added immediately and the Eppendorf tubes stored at −20° C. […]
To 80 μL aliquots of DNA was added either 10 μL of MX (500 mM, pH 7) or vehicle control (500 mM NaCl). […] Aliquots (125 μL) of the samples were added to a black, clear-bottom 96 well plate (Corning) and analyzed with 700 nm excitation and 790 nm emission. Fluorescence was adjusted to DNA concentration.

Data set [3] concerns AP sites in calf thymus DNA. The experiment in a line: MX or ARP and Cy7MX genomic DNA competition assay. The format is binding. Here is the method: Calf thymus DNA was purchased from Sigma and was reconstituted overnight at 4° C. in either H2O or 500 mM MX (to eliminate basal AP sites) with gentle shaking (1.5 mL water or solution per 5 mg DNA). For samples reconstituted in MX solution, an ethanol precipitation was performed twice before heat and acid treatment (vide infra) then reconstituted in water. The DNA-water solution was aliquoted to 1.5 mL Eppendorf tubes (360 μL) and 10× Citrate buffer (1M NaCl, 100 μM monosodium phosphate, 100 μM monosodium citrate, pH 5.0) was added to a final concentration of 1×. For t=0 min samples, ice-cold 100% EtOH (1.0 mL) was added immediately and the Eppendorf tubes stored at −20° C. Other samples were placed in a 70° C. heating block for 15-90 minutes in 15-minute increments. Samples were removed from heat, precipitated in ice-cold 100% EtOH (1.0 mL), and then chilled at −20° C. for at least 20 minutes. Samples were centrifuged at 12,000×G for 10 min at 4° C. The supernatant was discarded. The process was repeated once beginning with the addition of EtOH (1.0 mL). The DNA pellet was dissolved in 700 μL H2O or TE buffer. Aliquots of 80 μL were put in 1.5 mL Eppendorf tubes. Any samples not used immediately were stored at −80° C.
Solutions of MX and Cy7MX were prepared in H2O varying [MX] from 0-1.9 M and maintaining at 25 μM. […] The ratios of MX:Cy7MX used in this study were: 0, 0.01, 0.1, 0.5, 1, 5, 10, 50, 100, 250, 500, 1000, 2500, 5000, 10000, 25000, 50000, and 75000. […] The following samples were prepared in triplicate: 20 μL of MX/Cy7MX solution was added to 80 μL aliquots of heat/acid treated DNA (t=45 min). Samples were incubated for 1 h at 37° C. in the dark. Ice-cold EtOH (1.0 mL) was added and the DNA was purified by EtOH precipitation three times as described in the heat/acid treatment of genomic DNA section. DNA was dissolved in 150 μL H2O. Aliquots (125 μL) of the samples were added to a black, clear-bottom 96 well plate (Corning) and analyzed with 750 nm excitation and 800 nm emission. Fluorescence was adjusted to DNA concentration.
As before (section 2.3.2) except solutions of ARP and Cy7MX were prepared in H2O varying [ARP] from 0-75 mM and maintaining at 1 μM. The ratios of ARP: Cy7MX used in this study were: 0, 0.1, 1, 10, 100, 500, 1000, 5000, 10000, 25000, 50000, and 75000.

For data set [4] the following is noted: in EtOH; cited from earlier work.
For data set [5] the following is noted: in EtOH; cited from earlier work. This is another data set of the same source.
The nature of a further data set: Aqueous solubility. Format: physicochemical.

For the compound `CN(C)c1cccc2c(S(=O)(=O)NOCCCON)cccc12` [DansylMX, N-(3-(aminooxy)propoxy)-5-(dimethylamino)naphthalene-1-sulfonamide], in the data set on AP DNA, the “dose-response and overall efficacy in SSB assay” value is given as “unacceptable dose-response”; the “overall reduction in SSB activity” value is listed as “ca. 60%”. Besides, in data set [1], the Stokes shift was found to be 200 nm, the λabs max was 340 nm and the λem max is listed as 540 nm.

Regarding `CCCN1/C(=C/C=C(/C=C/C2=[N+](CCC)c3ccccc3C2(C)C)c2ccc(C(=O)NCCCON)cn2)C(C)(C)c2ccccc21` [Cy5MX, 2-((1E,3Z)-3-(5-((3-(aminooxy)propyl)carbamoyl)pyridin-2-yl)-5-((E)-3,3-dimethyl-1-propylindolin-2-ylidene)penta-1,3-dien-1-yl)-3,3-dimethyl-1-propyl-3H-indol-1-ium 2,2,2-trifluoroacetate], in the data set with AP DNA, the “dose-response and overall efficacy in SSB assay” value was “acceptable dose-response and overall efficacy”. Moreover, in data set [1], the Stokes shift is recorded as 20 nm, the λabs max is listed as 640 nm and the λem max is given as 660 nm.

For the compound `Cc1cc(=O)oc2cc(OCCCON)ccc12` [MCMX, 7-(3-(aminooxy)propoxy)-4-methyl-2H-chromen-2-one], the “dose-response and overall efficacy in SSB assay” value in the data set with AP DNA was “superior to the other probes assayed in dose-response and overall efficacy”. In data set [1], the Stokes shift is given as 50 nm, the λabs max was determined as 325 nm and the λem max is 375 nm.

Take `NOCCCOc1ccc2cc(-c3ccc([N+](=O)[O-])cc3)c(=O)oc2c1` [NpCMX, 7-(3-(aminooxy)propoxy)-3-(4-nitrophenyl)-2H-chromen-2-one]: the “dose-response and overall efficacy in SSB assay” value in the data set with AP DNA was “superior to the other probes assayed in dose-response and overall efficacy”. For the same compound, in data set [1], the Stokes shift was determined as 185 nm, the λabs max was 365 nm and the λem max stood at 550 nm.

As to `CON` [MX, methoxyamine], the “Cy7MX fluorescent intensity after pretreatment (blocking)” value in data set [2] is “significantly reduced”. Further, in data set [3] (1 h at 37° C., constant Cy7MX), the “ED50 of Cy7MX, excess of competitor” value is listed as 3000 × excess. Moreover, the “ED50, molar ratio of probe to Cy7MX” value in data set [3] (calf thymus DNA heat/acid 45 min, FIG. 13) was determined as 3000 fold excess.

Regarding `CC1(C)C(/C=C/C=C/C=C/C=C2\N(CCCCS(=O)(=O)O)c3ccc4ccccc4c3C2(C)C)=[N+](CCCCS(=O)(=O)[O-])c2ccc3ccccc3c21` [ICG, indocyanine green], the “fluorescence quantum yield Φ of the standard” value in data set [4] is 0.132. In addition, the “fluorescence quantum yield of the standard” value in data set [5] is given as 0.132.

`NOCCCOc1ccc2cc(-c3ccc(N)cc3)c(=O)oc2c1` [ACMX, 7-(3-(aminooxy)propoxy)-3-(4-aminophenyl)-2H-chromen-2-one]: in data set [1], the Stokes shift is on record as 80 nm, the λabs max amounted to 370 nm and the λem max is recorded as 450 nm. In addition, the aqueous solubility result in “Aqueous solubility” is given as “poor aqueous solubility”.

In the case of `NNC(=S)Nc1ccc(-c2c3ccc(=O)cc-3oc3cc(O)ccc23)c(C(=O)O)c1` [Probe F422, reference compound], in the data set on AP DNA, the “dose-response and overall efficacy in SSB assay” value is reported as “unacceptable dose-response”; the “overall reduction in SSB activity” value is roughly 90%.
